Results from PubChem BioAssay (NCI).
Several values for one entry are separate records, joined by “and”; a condition that tells them apart may be missing. Identical values can stand only once.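 Growth conditions: 96-well plates. Treatment: test compound, 48 hours, 5 concentrations. Analysis: linear interpolation between bracketing concentrations; unreached endpoints set to highest concentration. GI50 is the concentration that inhibits growth by half. TGI marks complete inhibition of growth.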

What was measured:
Test in all cases: DTP human tumour cell line panel, 48 h
ACHN renal = tested on: ACHN renal
HL-60(TB) leukemia = tested on: HL-60(TB) leukemia
M14 melanoma = tested on: M14 melanoma
MDA-MB-231 breast = tested on: MDA-MB-231 breast
MDA-N = tested on: MDA-N
NCI-H460 lung = tested on: NCI-H460 lung
T-47D breast = tested on: T-47D breast
EKVX NSCLC = tested on: EKVX NSCLC
SR leukemia = tested on: SR leukemia

SMILES | TGI (ACHN renal) | TGI (HL-60(TB) leukemia) | TGI (M14 melanoma) | TGI (MDA-MB-231 breast) | TGI (MDA-N) | TGI (NCI-H460 lung) | TGI (T-47D breast) | TGI (EKVX NSCLC) | TGI (SR leukemia) | GI50 (ACHN renal) | GI50 (SR leukemia) | GI50 (HL-60(TB) leukemia) | GI50 (M14 melanoma) | GI50 (MDA-MB-231 breast) | GI50 (NCI-H460 lung) | GI50 (T-47D breast) | GI50 (EKVX NSCLC)
CCOP(=O)(/C=C/n1cc(C)c(=O)[nH]c1=O)OCC | > 100 µM | > 100 µM | > 100 µM | > 100 µM | > 100 µM | > 100 µM | > 100 µM | > 100 µM | – | – | – | – | – | – | – | – | –
Nc1[nH]c(=O)nc2c1ncn2C1OC(CO)C(O)C1O (stereo not given) | > 100 µM | 54.9 µM | > 100 µM | > 100 µM | > 100 µM | > 100 µM | 70.3 µM | > 100 µM | – | – | – | – | – | – | – | – | –
COC1(CC[C@@H](C)COC2OC(CO)C(O)C(O)C2O)OC2C[C@H]3[C@@H]4CC[C@H]5C[C@@H](OC6OC(CO)C(OC7OC(CO)C(O)C(O)C7O)C(O)C6OC6OC(C)C(O)C(O)C6O)[C@H](O)C[C@]5(C)[C@H]4CC[C@]3(C)C2[C@@H]1C (stereo not given in full) | 3.33 µM | 5.38 µM | 3.36 µM | 3.66 µM | 4.55 µM | 9.43 µM | 9.01 µM | 4.52 µM | 16.8 µM | – | – | – | – | – | – | – | –
CCC1(c2ccc(N3C(=O)c4cccc5cc([N+](=O)[O-])cc(c45)C3=O)cc2)CCC(=O)NC1=O (stereo not given) | 43.5 µM | – | > 100 µM | 21.4 µM | – | > 50 µM | > 100 µM | > 70.5 µM | – | – | – | – | – | – | – | – | –
O=c1[nH]c(=O)n(COC(CO)CO)cc1-c1ccccc1 | > 100 µM | > 100 µM | > 100 µM | > 100 µM | > 100 µM | > 100 µM | > 100 µM | > 100 µM | > 100 µM | – | – | – | – | – | – | – | –
O=S(=O)(Nc1nc2ccccc2nc1N1CCCCCC1)c1ccccc1 | 86.7 µM | 75.1 µM | 49.9 µM | > 100 µM | > 100 µM | 33.5 µM | > 100 µM | > 100 µM | > 100 µM | – | – | – | – | – | – | – | –
O=C(O)CSC(CC(=O)c1ccc(Cl)cc1)c1ccc(Cl)cc1 (stereo not given) | > 100 µM | 7.45 µM | > 100 µM | > 100 µM | > 100 µM | > 100 µM | 98.4 µM | > 100 µM | 7.37 µM | – | – | – | – | – | – | – | –
COc1ccc(N2C(=O)C3c4[nH]c5c(C)cccc5c4C4CCC(C(C)C)CC4C3C2=O)cc1 (stereo not given) | 47.2 µM | – | 26.8 µM | 34.8 µM | 29.2 µM | 39.7 µM | 48.6 µM | 40.6 µM | 32.5 µM | – | – | – | – | – | – | – | –
C/C(=N\Nc1nc2ccccc2s1)c1ccncn1 | 11.8 µM | – | 14.4 µM | > 46.9 µM | > 100 µM | 14.9 µM | > 100 µM | 10.2 µM | > 100 µM | – | – | – | – | – | – | – | –
N[C@@H](CCC(=O)NC(Cc1ccccc1)C(=O)NCP(=O)(O)O)C(=O)O (stereo not given in full) | > 100 µM | > 100 µM | – | > 100 µM | > 100 µM | > 100 µM | > 100 µM | > 100 µM | > 100 µM | – | – | – | – | – | – | – | –
CN(CCCCCl)P(=O)(OCc1ccc([N+](=O)[O-])o1)OCC1OC(n2ccc(N)nc2=O)C(O)C1O (stereo not given) | > 100 µM | 31.8 µM | > 100 µM | 67.3 µM | 40.3 µM | 68.3 µM | 7.71 µM | – | 43.9 µM | – | – | – | – | – | – | – | –
O=C1NC(O)c2cc3ccccc3cc2O1 (stereo not given) | > 100 µM | > 100 µM | > 100 µM | > 100 µM | – | > 100 µM | > 100 µM | > 100 µM | 71.3 µM | – | – | – | – | – | – | – | –
CCOC(=O)NC(=S)N(CC(=O)c1cc(OC)c(OC)c(OC)c1)c1ccc(Cl)cc1 | > 100 µM | > 100 µM | > 100 µM | > 100 µM | – | > 100 µM | 72.9 µM | > 100 µM | > 100 µM | > 100 µM | 38.1 µM | 65.7 µM | 36.7 µM | 45.9 µM | 52.5 µM | 23.5 µM | 62.4 µM
CC(O)c1nc(C#N)c(N)o1 (stereo not given) | > 100 µM | > 100 µM | > 100 µM | > 100 µM | > 100 µM | – | > 100 µM | > 100 µM | – | – | – | – | – | – | – | – | –
NC(=O)[C@H](Cc1ccc(O)cc1)Nc1c(O)c2c(c(O)c1Cl)C(=O)C=CC2=O | 6.61 µM | 3.19 µM | > 7 µM | 5.23 µM | 4.1 µM | > 10 µM | 5.27 µM | > 10 µM | 5.26 µM | – | – | – | – | – | – | – | –
Cc1nc2c(Br)cc(Br)cc2c(=O)n1-c1ccccc1NC1OC(CO)C(O)C(O)C1O (stereo not given) | > 100 µM | > 100 µM | > 100 µM | > 100 µM | > 100 µM | > 100 µM | > 100 µM | > 100 µM | > 100 µM | – | > 100 µM and 44.8 µM | – | – | – | – | – | –
CC(C)(C)C(=O)Nc1c(C=O)ccc2[nH]cnc12 | > 100 µM | – | > 100 µM | > 100 µM | > 100 µM | > 100 µM | > 100 µM | > 100 µM | – | – | – | – | – | – | – | – | –
O=CCCCCCOCc1ccccc1 | > 100 µM | > 43.7 µM | > 100 µM | > 100 µM | > 100 µM | > 54.9 µM | > 100 µM | > 100 µM | > 100 µM | – | – | – | – | – | – | – | –
C[C@]12CC[C@H]3[C@@H](CC=C4C[C@@H](N5CCCC5)CC[C@@]43C)[C@@H]1C[C@H](N1CCCCC1)[C@@H]2O | > 100 µM | > 100 µM | 40.4 µM | > 100 µM | > 100 µM | > 100 µM | > 100 µM | > 100 µM | 35.7 µM | – | – | – | – | – | – | – | –
O=[N+]([O-])c1ccc(-n2nc3ccc4nonc4c3n2)cc1 | > 100 µM | > 100 µM | > 100 µM | > 100 µM | > 100 µM | > 100 µM | > 100 µM | > 100 µM | > 100 µM | – | – | – | – | – | – | – | –
COc1cc(CCNC2=CC(=O)c3nc[nH]c3C2=O)ccc1O | > 100 µM | 60.8 µM | 33.5 µM | > 100 µM | 32.5 µM | > 100 µM | 73.2 µM | 47.4 µM | 98.4 µM | – | – | – | – | – | – | – | –
CCOC(=O)c1c(-c2ccc(OC)cc2)ccn1C | > 10 µM | – | > 10 µM | > 10 µM | – | > 10 µM | > 10 µM | > 10 µM | > 10 µM | – | – | – | – | – | – | – | –
